From PubChem BioAssay AID248 (DTP/NCI, 2004)
Several values for one entry are separate records, joined by “and”; a condition that tells them apart may be missing. Identical values can stand only once. Toxic doses and inconclusive results are not listed. No stated cut-off is given here; in the data, active means T/C of 150% or more; inactive means T/C below 125%. Square brackets hold non-standard residues; d marks the D form. Peptide text beside a SMILES is read from it. * marks the point of attachment. ξ: configuration not given here. Boc = CC(C)(C)OC(=O)*; ξP = O=C(O)C1CCCN1

Tested on: L1210 leukemia ip in BDF1 mice, survival T/C
Assay: NCI In Vivo Anticancer Drug Screen. Data for tumor model L1210 Leukemia (intraperitoneal) in B6D2F1 (BDF1) mice
Conditions: endpoint: mean survival time, higher = longer survival
Method in brief: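 Ratio derived from survival: compound-dosed mice over vehicle-dosed mice, all bearing a transplantable tumor.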

[1] = dose: 100.0 mg/kg/injection, schedule: Q04DX003 (ip), vehicle: saline with Tween-80
[2] = dose: 200.0 mg/kg/injection, schedule: Q04DX003 (ip), vehicle: saline with Tween-80
[3] = dose: 400.0 mg/kg/injection, schedule: Q04DX003 (ip), vehicle: saline with Tween-80
[4] = dose: 100.0 mg/kg/injection, schedule: Q01DX009 (ip), vehicle: saline with Tween-80
[5] = dose: 200.0 mg/kg/injection, schedule: Q01DX009 (ip), vehicle: saline with Tween-80
[6] = dose: 400.0 mg/kg/injection, schedule: Q01DX009 (ip), vehicle: saline with Tween-80
[7] = dose: 100.0 mg/kg/injection, schedule: Q04DX002 (ip), vehicle: Klucel (hydroxypropylcellulose) (HPC)
[8] = dose: 200.0 mg/kg/injection, schedule: Q04DX002 (ip), vehicle: Klucel (hydroxypropylcellulose) (HPC)
[9] = dose: 200.0 mg/kg/injection, schedule: Q04DX002 (ip), vehicle: saline with Tween-80
[10] = dose: 400.0 mg/kg/injection, schedule: Q04DX002 (ip), vehicle: saline with Tween-80
[11] = dose: 100.0 mg/kg/injection, schedule: Q04DX003 (ip), vehicle: Klucel (hydroxypropylcellulose) (HPC)
[12] = dose: 200.0 mg/kg/injection, schedule: Q04DX003 (ip), vehicle: Klucel (hydroxypropylcellulose) (HPC)
[13] = dose: 400.0 mg/kg/injection, schedule: Q04DX003 (ip), vehicle: Klucel (hydroxypropylcellulose) (HPC)
[14] = dose: 100.0 mg/kg/injection, schedule: Q01DX001 (ip), vehicle: saline
[15] = dose: 200.0 mg/kg/injection, schedule: Q01DX001 (ip), vehicle: saline
[16] = dose: 400.0 mg/kg/injection, schedule: Q01DX001 (ip), vehicle: saline
[17] = dose: 100.0 mg/kg/injection, schedule: Q01DX001 (ip), vehicle: saline with Tween-80
[18] = dose: 200.0 mg/kg/injection, schedule: Q01DX001 (ip), vehicle: saline with Tween-80
[19] = dose: 400.0 mg/kg/injection, schedule: Q01DX001 (ip), vehicle: saline with Tween-80
[20] = dose: 100.0 mg/kg/injection, schedule: Q01DX001 (ip), vehicle: carboxymethylcellulose (CMC)
[21] = dose: 200.0 mg/kg/injection, schedule: Q01DX001 (ip), vehicle: carboxymethylcellulose (CMC)
[22] = dose: 400.0 mg/kg/injection, schedule: Q01DX001 (ip), vehicle: carboxymethylcellulose (CMC)

Measured: T/C

CSCc1cnc(N)nc1-c1ccccc1
inactive: [1] 105 % of control | [2] 97 % of control | [3] 105 % of control

Cc1ccc(B(O)O)cc1
inactive: dose: 50.0 mg/kg/injection, schedule: Q04DX002 (ip), vehicle: alcohol 107 % of control | dose: 100.0 mg/kg/injection, schedule: Q04DX002 (ip), vehicle: alcohol 101 % of control | dose: 200.0 mg/kg/injection, schedule: Q04DX002 (ip), vehicle: alcohol 101 % of control

COC(=O)CNC(=O)C1CCCN1C(=O)OC(C)(C)C (stereo not drawn) (Boc-[ξP]-Gly-OMe)
inactive: [4] 100 % of control | [5] 100 % of control | [6] 90 % of control

CCOC(=O)c1cnc(N(C)CC(=O)O)[nH]c1=O
inactive: [7] 94 % of control | [8] 94 % of control | dose: 400.0 mg/kg/injection, schedule: Q04DX002 (ip), vehicle: Klucel (hydroxypropylcellulose) (HPC) 107 % of control

COc1ccc(CCNC(=O)NC(C)(C)C)cc1OC
inactive: dose: 100.0 mg/kg/injection, schedule: Q04DX002 (ip), vehicle: saline with Tween-80 97 % of control | [9] 94 % of control | [10] 97 % of control

NNC(=O)CNc1cccc(Cl)c1
inactive: [7] 101 % of control | [8] 108 % of control

c1ccc(-c2nnc(-c3ccccn3)s2)nc1
inactive: dose: 50.0 mg/kg/injection, schedule: Q01DX001 (ip), vehicle: water 108 % of control | dose: 100.0 mg/kg/injection, schedule: Q01DX001 (ip), vehicle: water 103 % of control | dose: 200.0 mg/kg/injection, schedule: Q01DX001 (ip), vehicle: water 106 % of control | dose: 400.0 mg/kg/injection, schedule: Q01DX001 (ip), vehicle: water 111 % of control

Cc1ccc(/C=C/C(=O)c2ccc(Cl)cc2)cc1
inactive: [4] 108 % of control | [1] 93 % of control | [5] 94 % of control | [2] 101 % of control | [6] 97 % of control | [3] 91 % of control

O=C(O)CN(Cc1ccccc1)Cc1ccccc1
inactive: [11] 95 % of control | [12] 98 % of control | [13] 98 % of control

CSc1cc(N)nc2nc[nH]c12
inactive: [14] 105 % of control | [15] 98 % of control | [16] 98 % of control

CC1(C)N([O-])[N+](=O)C1(C)C
inactive: [17] 97 % of control | [18] 101 % of control | [19] 101 % of control

O=C(O)C(O)C(O)C(=O)O.[Cu+2] (stereo not drawn)
inactive: dose: 5.0 mg/kg/injection, schedule: Q01DX001 (ip), vehicle: saline 95 % of control | dose: 10.0 mg/kg/injection, schedule: Q01DX001 (ip), vehicle: saline 89 % of control | dose: 20.0 mg/kg/injection, schedule: Q01DX001 (ip), vehicle: saline 93 % of control | dose: 40.0 mg/kg/injection, schedule: Q01DX001 (ip), vehicle: saline 101 % of control

CC(=O)OC1CCC2(C)C(CCC3C2CC(=O)C2(C)C3CC(N3CC3)C2C(C)=O)C1 (stereo not drawn)
inactive: dose: 100.0 mg/kg/injection, schedule: Q01DX001 (sc), vehicle: steriod suspending solution 89 % of control | dose: 200.0 mg/kg/injection, schedule: Q01DX001 (sc), vehicle: steriod suspending solution 99 % of control | dose: 400.0 mg/kg/injection, schedule: Q01DX001 (sc), vehicle: steriod suspending solution 99 % of control

Cc1cc(N2C(=O)CSC2=S)ccc1Br
inactive: [4] 104 % of control | [1] 96 % of control | [5] 93 % of control | [2] 93 % of control | [3] 104 % of control

COc1ccccc1NC(N)=O
inactive: [1] 98 % of control | [2] 107 % of control | [3] 98 % of control

CCC(=O)OC1(c2ccccc2)CCN(C2CC2)CC1
inactive: dose: 25.0 mg/kg/injection, schedule: Q01DX001 (ip), vehicle: Klucel (hydroxypropylcellulose) (HPC) 92 % of control | dose: 50.0 mg/kg/injection, schedule: Q01DX001 (ip), vehicle: Klucel (hydroxypropylcellulose) (HPC) 97 % of control | dose: 100.0 mg/kg/injection, schedule: Q01DX001 (ip), vehicle: Klucel (hydroxypropylcellulose) (HPC) 100 % of control

O=C1c2cc(N=C(NO)C(F)(F)F)ccc2-c2ccc([N+](=O)[O-])cc21
inactive: [20] 90 % of control | [21] 90 % of control | [22] 100 % of control

CCOP(=O)(Nc1cc2c(cc1Cl)-c1ccccc1C2=O)OCC
inactive: [20] 99 % of control | [21] 89 % of control | [22] 91 % of control

O=C(NC(=S)Nc1cc(C(F)(F)F)ccc1Cl)c1cccc([N+](=O)[O-])c1
inactive: [17] 105 % of control | [4] 96 % of control and 108 % of control | [1] 99 % of control | [18] 103 % of control | [5] 92 % of control and 99 % of control | [9] 98 % of control and 118 % of control | [2] 103 % of control | [19] 87 % of control | [6] 92 % of control and 94 % of control | [10] 95 % of control and 102 % of control | [3] 89 % of control

CCN(CC)CCOc1ccc(N=N/C(C(C)=O)=C(\C)O)cc1
inactive: dose: 25.0 mg/kg/injection, schedule: Q04DX002 (ip), vehicle: saline 93 % of control and 96 % of control | dose: 50.0 mg/kg/injection, schedule: Q04DX002 (ip), vehicle: saline 101 % of control and 104 % of control

O=C1C(Br)=CC(Br)=C/C1=N/Br
inactive: dose: 50.0 mg/kg/injection, schedule: Q04DX003 (ip), vehicle: Klucel (hydroxypropylcellulose) (HPC) 108 % of control | [11] 97 % of control | [12] 93 % of control

O=C(O)/C=C/C(=O)Nc1ccc2c(c1)C(NC(=O)/C=C/C(=O)O)c1ccccc1-2 (stereo not drawn)
inactive: [14] 93 % of control | dose: 100.0 mg/kg/injection, schedule: Q04DX003 (ip), vehicle: saline 100 % of control | [15] 97 % of control | dose: 200.0 mg/kg/injection, schedule: Q04DX003 (ip), vehicle: saline 96 % of control | [16] 88 % of control | dose: 400.0 mg/kg/injection, schedule: Q04DX003 (ip), vehicle: saline 92 % of control

Cc1cc(N(CCCl)CCCl)ccc1C=Nc1cc(Cl)c(O)c(Cl)c1
inactive: [20] 96 % of control | [21] 96 % of control | [22] 105 % of control

O=C(Nc1ccc(Nc2ccncc2)cc1)c1ccc(Nc2ccnc3ccc([N+](=O)[O-])cc23)cc1
inactive: dose: 100.0 mg/kg/injection, schedule: Q01DX009 (ip), vehicle: Klucel (hydroxypropylcellulose) (HPC) 92 % of control | [11] 101 % of control | dose: 200.0 mg/kg/injection, schedule: Q01DX009 (ip), vehicle: Klucel (hydroxypropylcellulose) (HPC) 109 % of control | [12] 97 % of control | dose: 400.0 mg/kg/injection, schedule: Q01DX009 (ip), vehicle: Klucel (hydroxypropylcellulose) (HPC) 95 % of control | [13] 108 % of control

Cl/C=C\C[N+]12CN3CN(CN(C3)C1)C2
inactive: dose: 25.0 mg/kg/injection, schedule: Q04DX003 (ip), vehicle: saline 100 % of control | dose: 50.0 mg/kg/injection, schedule: Q04DX003 (ip), vehicle: saline 94 % of control
